Consider 1 compound from patent US20250151728A1, “ANTIMICROBIAL SYSTEM WITH BETA CARBOLINE ALKALOID AND INDOLE ALKALOID AND COMPOSITIONS COMPRISING THEM” (Conopco, Inc., d/b/a UNILEVER, priority 2021, published 2025).

Experiment [1] relates to Aspergillus brasiliensis ATCC 16404. Kind of experiment: Liquid broth assay (MIC and checkerboard) against Aspergillus brasiliensis. In kind it is cell-based. The following applies: ATCC16404, component by itself, 30° C., 24 hours, MIC = <25% growth vs control (OD600nm). From the text:
(§1) Naturally derived antimicrobial systems were made, as shown below by combining the indole alkaloid and beta carboline alkaloid. Two pools were set up and each pool contained 1 organism. The strains involved were Enterobacter gergoviae ATCC 33028 of the family Pluralibacter gergoviae, a Gram-negative and Aspergillus brasiliensis ATCC 16404. FIC test range was 16 times greater than the projected MIC for each sample.
(§2) The differing behaviors of inhibitory antimicrobials in isolation and mixtures have been widely explored using the concept of the Fractional Concentration and Fractional Inhibitory Concentration (FIC). See for instance JRW Lambert and R Lambert, J. Appl. Microbiol 95, 734 (2003); T. Jadavji, CG Prober and R Cheung, Antibacterial Agents and Chemotherapy 26, 91 (1984), and WO 2004/006876. MIC is the minimum inhibitory concentration a component prevents visible growth of a microbe. The FC and FIC parameters can be defined as follows: […]
(§3) Liquid broth assays (MIC and checkerboard) were conducted to identify the minimum concentration(s) of individual and binary combinations of natural preservation materials. […] Each of the two-preservation chemical/broth mixes was then combined in a third 96 well plate at varying concentrations and then inoculated with 1-5×10^6 microorganisms and incubated at 30° C. for 24 hours, after which optical densities at OD600nm were measured.

The test system of experiment [2] is Enterobacter gergoviae ATCC 33028. In words: Liquid broth assay (MIC and checkerboard) against Enterobacter gergoviae. The class given is cell-based. Conditions: Pluralibacter gergoviae, ATCC33028, component by itself, 30° C., 24 hours, MIC = <25% growth vs control (OD600nm), read-out: minimal inhibitory concentration (MIC).
Description: as §1, §2, §3

As to `CN(C)Cc1c[nH]c2ccccc12` [Gramine, 1-(1H-Indol-3-yl)-N,N-dimethylmethanamine], the MIC in experiment [1] and in experiment [2] was 6250 µg/mL in each case.
